Reference: patent US20090298903A1, “USE OF TETRAMIC ACID DERIVATIVES FOR INSECT CONTROL” (priority 2006, published 2009)

Key:
Type in all cases: in vivo
[1] = tested on: flea beetles (Phyllotreta sp.); assay: Example 24: aubergines against flea beetles; conditions: 7 d after the last of four treatments, larvae, Imidacloprid (100 SL) 100, (I-4) (100 OD) 70, Profenofos (500 EC) 500 g a.s./ha
Method: Plots approx. 12 m^2 in size which are planted with aubergines cv. “DLP” are treated, in three replications, against flea beetles (Phyllotreta sp.). The application is carried out with a knapsack sprayer which is operated with pressurized air. Here, the active substance Example (I-4) (100 OD) and the commercial standards Imidacloprid (100 SL) and Profenofos (500 EC) are applied at the specified application rates. Four applications are carried out at intervals of 7, 8 and 10 days, with a water application rate of 750 l/ha.
The test is evaluated 7 days after the last treatment by scoring the destruction rate of the larvae on the plants.

Carpocapsa pomonella = assay: Example 30: apple trees against Carpocapsa pomonella, fruit damage; conditions: 14 days after treatment 2, Imidacloprid (200 SC) 0.015 %, (I-4) (150 OD) 0.015 %
Method: Approx. 16-year-old apple trees cv. “Golden Delicious” are treated, in four replications, against Carpocapsa pomonella. The application is carried out with a spray diffuser. Here, the active substance Example (I-4) (150 OD) is applied in comparison with Imidacloprid (200 SC) at the specified application rates. Two applications are carried out at an interval of 16 days, with a water application rate of 1000 l/ha.
The test is evaluated 14 days after treatment 2 by scoring the fruit damage with the aid of the Abbott formula.

Liriomyza sp. = assay: Example 18: beans against Liriomyza sp.
Method: Plots approx. 10 m^2 in size which are planted with beans cv. “Lago Azul” are treated, in three replications, against Liriomyza sp. Here, the active substance Example (I-4) (150 OD) and the commercial standards Cyromazine (WP 75) and Abamectin (EC 018) are applied at the specified application rates, using a knapsack sprayer which is operated with pressurized gas. The water application rate is 400 and 500 l/ha., respectively. Three applications are carried out at intervals of in each case 7 days.
The destruction rate in percent is determined on in each case 10 leaves. 2, 7, 12, 18, 20 and 25 days after the first treatment, the following results are obtained: […]

Dalbulus maidis = assay: Example 13: dwarf beans against Dalbulus maidis; conditions: nymphs on leaves, all 96 g a.s./ha; for Efficacy (% Abbott) 7 d: 7 d after second treatment, 240 SC + 0.1% rapeseed oil methyl ester, Imidacloprid 200 SL; for Efficacy (% Abbott) 11 d: 11 d after second treatment
Method: Plots approx. 10 m^2 in size which are planted with dwarf beans cv. “Carioquinha” are treated, in three replications, against Dalbulus maidis. The application is carried out with a knapsack sprayer which is operated with pressurized air. Here, the active substances Example (I-4) (240 SC) and Example (I-9) (240 SC), in a tank mix with 0.1% a.s. rapeseed oil methyl ester (500 EW) and the commercial standard Imidacloprid (200 SL), are applied at the specified application rates. Two applications are carried out at an interval of 7 days, using a water application rate of 300 l/ha.
The test is evaluated 7 and 11 days after the second treatment by scoring the destruction rate of the animals (nymphs) on the leaves.

Idioscopus clypealis = assay: Example 14: mango tree against Idioscopus clypealis; conditions: nymphs on infructescences; for Efficacy (% Abbott) 7 days after treatment 4 / Efficacy (% Abbott) 7 days after treatment 5: Imidacloprid 0.00025 %, (I-4) 0.0016 %, Pymetrozine 0.002 %; for Efficacy (% Abbott) 7 days after treatment 3: Imidacloprid (100 SL) 0.00025 %, (I-4) (240 SC + 0.2% rapeseed oil methyl ester) 0.0016 %, Pymetrozine (WP 25) 0.002 %
Method: A mango tree which is approximately 14 years old is treated, in three replications, against Idioscopus clypealis. The application is carried out with a high-pressure sprayer. Here, the active substance Example (I-4) (240 SC), in a tank mix with 0.2% a.s. rapeseed oil methyl ester (500 EW) and the commercial standards Imidacloprid (100 SL) and Pymetrozine (WP 25), is tested at the specified application rates. The amount of spray mixture is 10 l/tree. Five treatments are carried out at intervals of 7, 14, 21 and 28 days.
The test is evaluated in each case 7 days after treatments 3 to 5 by scoring the destruction rate of the nymphs on the infructescences.

Phyllocnistis citrella = assay: Example 27: orange trees against Phyllocnistis citrella; conditions: larvae on shoots; for Efficacy (% Abbott) 7 d: 7 d after treatment, Imidacloprid (192 SC) 140, (I-4) (150 OD) 132 g a.s./ha; for Efficacy (% Abbott) 14 d: 14 d after treatment, Imidacloprid 140, (I-4) 132 g a.s./ha
Method: Small orange trees on plots approximately 30 m^2 in size are treated, in four replications, against Phyllocnistis citrella. The application is carried out with a motor-operated knapsack sprayer. Here, the active substance Example (I-4) (150 OD) is tested against the commercial standard Imidacloprid (192 SC) at the specified rates. The water application rate is 935 l/ha.
The test is evaluated 7 and 14 days after the treatment by scoring the destruction rates of the larvae on the shoots in percent.

Thrips palmi = assay: Example 4: aubergines against Thrips palmi; conditions: nymphs on leaves, (I-4) (240 SC + 0.2% rapeseed oil methyl ester) 0.0096 % a.s.; for Efficacy (% Abbott) 7 d after treatm. 3 / Efficacy (% Abbott) 14 d after treatm. 3 / Efficacy (% Abbott) 21 d after treatm. 3: Imidacloprid 0.01 % a.s.; for Efficacy (% Abbott) 4 d after treatm. 2: Imidacloprid (100 SL) 0.01 % a.s., three applications
Method: Plots 10 m^2 in size which are planted with aubergines cv. “Dumaguete Long Purple” are treated, in three replications, against Thrips palmi. The application is effected with a knapsack sprayer which is operated with pressurized air. Here, the active substance Example (I-4) (240 SC), in a tank mix together with 0.2% a.s. rapeseed oil methyl ester […] and the commercial standard Imidacloprid (100 SL), is tested at the specified application rates. The water application rate is 400 l/ha. Three applications are carried out at intervals of 8 and 7 days, respectively.
The test is evaluated in each case 4 days after treatment 2 and 7, 14 and 21 days after treatment 3 by scoring the destruction of the nymphs on the leaves.

SMILES	Efficacy (% Abbott) 7 d [1] [% Abbott]	Efficacy (% Abbott) (Carpocapsa pomonella)	Efficacy (% Abbott) 2 d (Liriomyza sp.; 2 d after first treatment, 10 leaves, Cyromazine (WP 75) 130, (I-4) (150 OD) 100, Abamectin (EC 018) 14.4 g a.s./ha, three applications, 7-day intervals) [% Abbott]	Efficacy (% Abbott) 7 d (Liriomyza sp.; 7 d after first treatment, Cyromazine 130, (I-4) 100, Abamectin 14.4 g a.s./ha) [% Abbott]	Efficacy (% Abbott) 12 d (Liriomyza sp.; 12 d after first treatment, Cyromazine 130, (I-4) 100, Abamectin 14.4 g a.s./ha) [% Abbott]	Efficacy (% Abbott) 18 d (Liriomyza sp.; 18 d after first treatment, Cyromazine 130, (I-4) 100, Abamectin 14.4 g a.s./ha) [% Abbott]	Efficacy (% Abbott) 20 d (Liriomyza sp.; 20 d after first treatment, Cyromazine 130, (I-4) 100, Abamectin 14.4 g a.s./ha) [% Abbott]	Efficacy (% Abbott) 25 d (Liriomyza sp.; 25 d after first treatment, Cyromazine 130, (I-4) 100, Abamectin 14.4 g a.s./ha) [% Abbott]	Efficacy (% Abbott) 7 d (Dalbulus maidis) [% Abbott]	Efficacy (% Abbott) 11 d (Dalbulus maidis) [% Abbott]	Efficacy (% Abbott) 7 days after treatment 4 (Idioscopus clypealis) [% Abbott]	Efficacy (% Abbott) 7 days after treatment 5 (Idioscopus clypealis) [% Abbott]	Efficacy (% Abbott) 7 days after treatment 3 (Idioscopus clypealis) [% Abbott]	Efficacy (% Abbott) 7 d (Phyllocnistis citrella) [% Abbott]	Efficacy (% Abbott) 14 d (Phyllocnistis citrella) [% Abbott]	Efficacy (% Abbott) 7 d after treatm. 3 (Thrips palmi) [% Abbott]	Efficacy (% Abbott) 14 d after treatm. 3 (Thrips palmi) [% Abbott]	Efficacy (% Abbott) 21 d after treatm. 3 (Thrips palmi) [% Abbott]	Efficacy (% Abbott) 4 d after treatm. 2 (Thrips palmi)
CCOC(=O)OC1=C(c2cc(C)ccc2C)C(=O)N[C@]12CC[C@@H](OC)CC2 [Example (I-4)]	89	73.7	40	69	30	43	57	46	73	69	98.1	99.4	54.7	97.9	68.2	75.0	82.8	90.6	82.9 % Abbott
O=[N+]([O-])NC1=NCCN1Cc1ccc(Cl)nc1 [Imidacloprid]	98	26.3							82	74	82.2	86.4	69.1	91.7	52.3	75.0	62.1	53.1	82.9. % Abbott
